# Experimental data reported in patent publication US20260335456A1, “ANTIBODY-DRUG CONJUGATE HAVING CAMPTOTHECIN-BASED DRUG LINKED TO ANTIBODY HAVING LOW ANTIGEN-BINDING AFFINITY THROUGH LINKER” (PINOTBIO, INC., priority 2022, published 2026).
# Experiments:
# MDA-MB-468 tumor model = assay: In vivo efficacy in MDA-MB-468 model (EGFR ADCs); set-up: species or system mouse
# Method: Cells growing in exponential growth phase were harvested and counted for tumor inoculation.
# MDA-MB-468 cells (1×10^7) in 0.2 mL of DPBS with Matrigel were inoculated subcutaneously into the right anterior flank of each mouse. When the average tumor volume reached approximately 215 mm^3, animals were randomly grouped, and then, treatment for drug efficacy studies was initiated.
# During routine monitoring, normal behavior such as mobility, food and water consumption (observation only), body weight changes (weighed twice weekly), eye/hair mailing, tumor growth and effectiveness of treatment were checked in animals every day. Deaths and observed clinical signs were recorded based on the number of animals in each subset.
# The primary endpoint was determined as a time point when tumor growth could be delayed or the mice could be cured. The two-dimensional size of the tumor was measured twice weekly using a caliper, and the volume was expressed in mm^3 using the equation (V=0.5 a×b^2, where a and b are the long and short diameters of the tumor, respectively).
# Tumor growth inhibition (TGI) was calculated for each group.
# TGI (%)=[1−(Ti/T0)/(Vi/V0)]×100 […]
# FaDu cell line = assay: Western blot of DDX5 and anti-apoptotic proteins in FaDu; format: cell-based; conditions: 0, 10, 100 nM; for DDX5 degradation ranking: FaDu and A549; for expression of anti-apoptotic proteins: Survivin, cIAP2, Mcl-1, XIAP, 24 hours
# Method: 1-1: Confirmation of Suppressive Activity of Expression of Cancer-Related Survival Genes of DDX5, Survivin, Mcl-1, XIAP and cIAP2 Through Western Blot
# 200,000 FaDu cell lines were seeded per well in a 6-well plate and incubated at constant temperature (37 °C, 5% CO2). […] It was incubated at constant temperature (37 °C, 5% CO2) for 24 hours. The well was treated with 100 μL of RIPA buffer dissolved in protease inhibitor cocktail. […] Protein concentration was determined through protein assay.
# Electrophoresis was performed on the gel at 60V.
# 7 sheets of activated filter paper, PVDF membrane, gel and 7 sheets of filter paper were placed in order in the cassettes of the Trans-Blot® Turbo™ Transfer System, and the lid was closed, and after being inserted into the machine, the protocol started.
# The transferred membrane was immersed in blocking buffer and incubated at constant temperature (RT, 1h). Next, it was incubated at 4 °C overnight in primary antibody solution. It was rinsed with TBST buffer for 3 minutes (repeated 3 times). Incubation was performed (RT, 1h) in a secondary antibody solution conjugated with HRP. It was rinsed with TBST buffer for 3 minutes (repeated 3 times).
# After soaking the membrane in the ECL substrate for 3 to 5 minutes, the signal was determined by using the ChemiDoc™ MP Imaging System.
# A549 cell line = assay: Western blot of DDX5 and anti-apoptotic proteins in A549; format: cell-based; conditions: for DDX5 degradation ranking: FaDu and A549, 0, 10, 100 nM
# [1] = Kim et al.; doses 10 times higher than the clinically applicable dose; cited from earlier work
# patients = conditions: domestic clinical studies; cited from earlier work
# [2] = system: wide range of cancer cell lines; conditions: Lee et al.; cited from earlier work
# several cell lines = conditions: cited from earlier work
# ABCG2 = biological target: T1, ABCG2 (Homo sapiens, UniProt Q9UNQ0); assay: Sensitivity to ABCG2 transporter; format: cell-based
# T1 sequence (Q9UNQ0 1-655): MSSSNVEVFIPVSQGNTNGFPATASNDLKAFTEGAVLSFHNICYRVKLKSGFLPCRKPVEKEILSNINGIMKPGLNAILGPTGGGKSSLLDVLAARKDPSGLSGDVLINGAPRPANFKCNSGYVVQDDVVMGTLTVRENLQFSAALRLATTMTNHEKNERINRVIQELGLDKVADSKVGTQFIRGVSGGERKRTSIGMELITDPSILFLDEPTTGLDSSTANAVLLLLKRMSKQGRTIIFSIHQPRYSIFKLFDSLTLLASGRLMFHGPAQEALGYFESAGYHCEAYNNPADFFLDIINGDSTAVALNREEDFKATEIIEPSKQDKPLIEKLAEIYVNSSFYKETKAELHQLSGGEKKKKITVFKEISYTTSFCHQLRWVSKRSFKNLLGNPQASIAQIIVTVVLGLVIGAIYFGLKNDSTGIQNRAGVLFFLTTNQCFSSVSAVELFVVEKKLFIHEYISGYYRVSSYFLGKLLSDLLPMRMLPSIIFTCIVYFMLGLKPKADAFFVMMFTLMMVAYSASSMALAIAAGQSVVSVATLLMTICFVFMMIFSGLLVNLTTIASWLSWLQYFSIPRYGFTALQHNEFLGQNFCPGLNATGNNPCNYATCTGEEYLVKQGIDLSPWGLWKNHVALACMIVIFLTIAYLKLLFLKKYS
# A549 = assay: Cell viability assay in A549; format: cell-based; conditions: for efficacy / IC50 in ABCG2-overexpressing cells: A549, FIG. 9
# Method: (§1) After 24 hours, 100 μL of the drug at 9 concentrations (serial dilution of 1/5 from 1,000 nM) was treated with the cells. […] In this case, a control group that was not treated with the drug (drug concentration 0) was also prepared. It was cultured at constant temperature (37 °C, 5% CO2) for 3 or 6 days. 100 μL of CellTiter-Glo reagent (using CellTiter-Glo® Luminescent Cell Viability Assay kit (Promega, G7571)) was added to each well and pipetted. After incubation at constant temperature (RT) for 10 minutes, luminescence was measured.
# DDX5 protein = DDX5 protein (Homo sapiens, UniProt P17844); assay: DDX5 degradation by camptothecin drugs; format: cell-based; conditions: FIGS. 7 to 10
# Sequence of DDX5 protein (P17844 whole entry): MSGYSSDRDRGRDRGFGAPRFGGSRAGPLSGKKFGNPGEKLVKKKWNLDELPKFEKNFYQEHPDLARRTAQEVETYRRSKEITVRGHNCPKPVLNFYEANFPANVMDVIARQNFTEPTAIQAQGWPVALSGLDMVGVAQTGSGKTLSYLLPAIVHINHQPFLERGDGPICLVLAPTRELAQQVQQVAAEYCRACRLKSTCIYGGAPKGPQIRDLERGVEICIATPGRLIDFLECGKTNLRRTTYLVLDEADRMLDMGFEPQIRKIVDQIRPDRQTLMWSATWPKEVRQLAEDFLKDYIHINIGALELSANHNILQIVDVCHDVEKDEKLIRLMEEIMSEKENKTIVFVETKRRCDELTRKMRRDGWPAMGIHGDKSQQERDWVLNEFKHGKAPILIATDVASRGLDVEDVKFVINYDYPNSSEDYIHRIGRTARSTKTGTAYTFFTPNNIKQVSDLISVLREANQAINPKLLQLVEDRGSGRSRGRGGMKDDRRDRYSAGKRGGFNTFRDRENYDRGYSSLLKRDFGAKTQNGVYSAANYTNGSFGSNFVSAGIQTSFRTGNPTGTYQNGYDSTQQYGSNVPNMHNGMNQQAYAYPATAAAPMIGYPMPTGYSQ
# [3] = Lactone to carboxylate form conversion in pH 7.4; format: physicochemical; conditions: for rate of conversion from lactone to carboxylate form / degraded at 3 µM: pH 7.4, 37 °C; for degraded at 3 µM: PBS with 10% DMSO, read-out: carboxylate form formed; for lactone to carboxylate conversion versus reference compounds: pH 7.4, reference: exatecan, DXd, SN-38, FL118
# Method: 3-2. Lactone to Carboxylate Form Conversion in pH 7.4
# Afterwards, it was centrifuged at 4 °C, 2 minutes, and 13,000 RCF conditions, and the supernatant was used as a sample.
# The column used was Cortecs C18 2.7 μm, 4.6×50 mm Column, and analysis was conducted under the following conditions. 1) 20 minutes: 5% B, 2) sample injection, 3) 2 minutes: 5% B, 4) 10 minutes: 5% B→50% B, 5) 1 minute: 50% B.
# In order to measure changes over time, the sample chamber was maintained at 37 °C, and the sample was set to be injected every measurement time. The measurement times were 0, 20, 40, 60, 90, 120, 180, 240, 300, 360, 480, 600 and 720 minutes.
# The content was calculated from the peak area of each lactone and carboxylate. Since the absorption coefficients of lactone and carboxylate are different, the lactone area was obtained by multiplying the carboxylate area by the equation below.
# in vitro cytotoxicity = assay: In vitro cytotoxicity of FL118, exatecan versus SN-38; format: cell-based; conditions: FIG. 5
# [4] = system: cancer cell line Xenograft models; conditions: cited from earlier work
# [5] = FL118 pharmacokinetics and tumor accumulation; format: in vivo
# Text: For example, when applying ADC, maximum selectivity between tumor tissue and normal tissue is ensured.
# PDAC cells with DDX5 KO = conditions: cited from earlier work
# [6] = system: HCT-8 and FaDu cell lines; assay: Western blot of anti-apoptotic proteins in HCT-8 and FaDu; format: cell-based; conditions: FIG. 6
# Text: GAPDH is an enzyme involved in glycolysis, which is an essential metabolic process in cells.
# rats and beagle dogs = assay: FL118 GLP-toxicity tests; format: in vivo; conditions: GLP-toxicity tests in rats and beagle dogs
# Text: (§2) Meanwhile, camptothecin-based anticancer drugs show excellent anticancer responses initially when used in patients, but strong resistance to these drugs appears through Epigenetic Silencing of the Top1 gene and Top2 Dependence of cancer cells.
# [7] = system: cancer cell line Xenograft models; assay: FL118 xenograft and human tumor animal model efficacy; format: in vivo
# Text: Genetic manipulation of DDX5 in PDAC cells affects tumor growth.
# as §2
# FaDu = assay: Cell viability assay in FaDu; format: cell-based
# Method: as §1
# DNA topoisomerase I = DNA topoisomerase I (Homo sapiens, UniProt P11387); conditions: versus SN-38 and topotecan; cited from earlier work
# Sequence of DNA topoisomerase I (P11387 whole entry): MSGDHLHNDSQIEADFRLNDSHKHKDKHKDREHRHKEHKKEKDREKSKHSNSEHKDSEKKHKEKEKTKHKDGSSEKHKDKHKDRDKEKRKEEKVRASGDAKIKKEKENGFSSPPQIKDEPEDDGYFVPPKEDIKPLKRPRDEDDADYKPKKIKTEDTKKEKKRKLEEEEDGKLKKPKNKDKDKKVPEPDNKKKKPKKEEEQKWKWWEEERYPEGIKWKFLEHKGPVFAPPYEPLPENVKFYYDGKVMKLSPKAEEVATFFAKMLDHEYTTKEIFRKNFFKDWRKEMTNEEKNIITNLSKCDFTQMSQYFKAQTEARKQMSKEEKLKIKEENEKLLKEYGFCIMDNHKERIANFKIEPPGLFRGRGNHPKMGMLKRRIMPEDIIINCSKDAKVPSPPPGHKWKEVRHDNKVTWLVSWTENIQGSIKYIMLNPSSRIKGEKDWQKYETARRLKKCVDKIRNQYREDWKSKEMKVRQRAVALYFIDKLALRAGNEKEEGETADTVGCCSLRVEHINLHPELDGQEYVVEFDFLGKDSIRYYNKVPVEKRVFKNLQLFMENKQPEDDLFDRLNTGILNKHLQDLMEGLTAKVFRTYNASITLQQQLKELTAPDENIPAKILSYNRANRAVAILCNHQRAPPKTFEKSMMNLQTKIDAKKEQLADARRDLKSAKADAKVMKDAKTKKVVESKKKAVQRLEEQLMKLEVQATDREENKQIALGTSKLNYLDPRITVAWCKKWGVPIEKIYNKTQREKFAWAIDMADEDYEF
# various cancer cells = conditions: resistance due to expression of P-glycoprotein; cited from earlier work
compound,measurement,setting,value
Nimotuzumab-CL2A-FL118: nimotuzumab ADC with CL2A-FL118 (Example 4),efficacy,"MDA-MB-468 tumor model; 1 mpk, 5 mpk and 10 mpk, versus cetuximab-based ADC",better efficacy
same,in vivo efficacy versus Cetuximab-CL2A-FL118,MDA-MB-468 tumor model; FIG. 22,better efficacy compared to Cetuximab-CL2A-FL118
"CC[C@@]1(O)C(=O)OCc2c1cc1n(c2=O)Cc2c-1nc1cc3c(c4c1c2[C@@H](N)CC4)OCO3 (single isomer, unassigned) [PBX-7011]",DDX5 degradation ranking,FaDu cell line,"followed by 7011, 7016 and 7014"
same,expression of anti-apoptotic proteins,FaDu cell line,"decrease in the expression of Survivin, cIAP2, Mcl-1 and XIAP as the concentration increased"
same,DDX5 degradation ranking,A549 cell line,"followed by 7011, 7016 and 7014"
CC[C@@]1(O)C(=O)OCc2c1cc1n(c2=O)Cc2c-1nc1ccccc1c2CCNC(C)C [CKD-602],adverse drug reactions,[1],no adverse drug reactions other than increased gastric secretion
same,side effects in clinical studies,patients,only reversible and controllable side effects such as neutropenia and leukopenia
same,anticancer effects versus camptothecin and topotecan,[2],superior anticancer effects compared to camptothecin and topotecan
CCc1c2c(nc3ccc(O)cc13)-c1cc3c(c(=O)n1C2)COC(=O)[C@]3(O)CC [SN-38],IC50,several cell lines,nanomolar range
same,sensitivity to ABCG2,ABCG2,show resistance in the way that the drug is released out of the cell due to overexpression of the ABCG2 Transporter
"CC[C@@]1(O)C(=O)OCc2c1cc1n(c2=O)Cc2c-1nc1cc(F)c(C)c3c1c2[C@@H](NC(=O)CO)CC3 [Dxd, reference compound]",efficacy / IC50 in ABCG2-overexpressing cells,A549,increased IC50 values
same,DDX5 degradation mechanism of action,DDX5 protein,exerts a mechanism of action (MoA) to degrade DDX5 protein
same,rate of conversion from lactone to carboxylate form,[3],0.6 % per minute
same,degraded at 3 µM,[3],76.5%
same,sensitivity to ABCG2,ABCG2,strongly influenced by ABCG2
"CC[C@@]1(O)C(=O)OCc2c1cc1n(c2=O)Cc2cc3cc4c(cc3nc2-1)OCO4 [FL118, 10, 11-methylenedioxy-camptothecin]",in vitro cytotoxicity versus SN-38,in vitro cytotoxicity,better efficacy against in vitro cytotoxicity compared to SN-38
same,DDX5 degradation ranking,FaDu cell line,superior to other substances
same,DDX5 degradation mechanism of action,DDX5 protein,directly binds to the tumor protein DDX5
same,"efficacy in eliminating human PDAC and CRC tumors, high DDX5 expression",[4]; high DDX5 expression,high efficacy
same,"efficacy in PDAC and CRC tumors, low DDX5 expression",[4]; low DDX5 expression,less effective
same,accumulation in cancer tissue,[5]; immediately after administration,accumulates quickly in cancer tissue
same,blood clearance,[5]; systemic administration alone,rapidly metabolized and excreted from the blood
same,DDX5 degradation ranking,A549 cell line,superior to other substances
same,sensitivity of DDX5 KO cells,PDAC cells with DDX5 KO,resistant
same,downregulating tumor proteins versus SN-38,[6],better efficacy in downregulating tumor proteins compared to the SN-38 drug
same,sensitivity to ABCG2,ABCG2,not affected by the ABCG2 Transporter
same,safety,rats and beagle dogs,excellent safety
same,"xenograft efficacy, Top1 not expressed",[7]; Epigenetic Silencing or Knock-out of Top1,strong efficacy
same,anticancer efficacy after SN-38 resistance,[7]; after inducing SN-38 resistance in tumor xenograft,strong anticancer efficacy
same,tumor regression efficacy,"[7]; same amount as SN-38, colon, head and neck, pancreatic cancer",stronger tumor regression efficacy than SN-38
same,xenograft efficacy,[7]; versus SN-38 in various cancer cell line Xenograft models,superior efficacy compared to SN-38
CC[C@@]1(O)C(=O)OCc2c1cc1n(c2=O)Cc2c-1nc1cc3c(c4c1c2[C@@H](NC(=O)CO)CC4)OCO3 [PBX-7014],DDX5 degradation ranking,FaDu cell line,"followed by 7011, 7016 and 7014"
same,expression of anti-apoptotic proteins,FaDu cell line,"decrease in the expression of Survivin, cIAP2, Mcl-1 and XIAP as the concentration increased"
same,dual mechanism (topoisomerase I inhibition and DDX5 degradation),A549 cell line,dual MoA that acts as a degrader of DDX5 (p68)
same,DDX5 degradation ranking,A549 cell line,"followed by 7011, 7016 and 7014"
same,rate of conversion from lactone to carboxylate form,[3],0.8 % per minute
same,degraded at 3 µM,[3],> 86%
same,lactone to carboxylate conversion versus reference compounds,[3],faster and at a higher rate than other reference compounds
CC[C@@]1(O)C(=O)OCc2c1cc1n(c2=O)Cc2c-1nc1cc3c(c4c1c2[C@@H](NC(=O)[C@@H](O)C1CC1)CC4)OCO3 [PBX-7024],efficacy / IC50 in ABCG2-overexpressing cells,A549,still maintained strong efficacy
same,apoptosis effect,"A549; A549, overexpresses ABCG2, 3 days",strong apoptosis effect
same,IC50 compared to Dxd,"A549; FaDu and A549, 3 days, FIG. 9",IC50 of an equal or higher level compared to Dxd
same,IC50 compared to Dxd,"FaDu; 3 days, FIG. 9",IC50 of an equal or higher level compared to Dxd
same,apoptosis effect,"FaDu; does not express ABCG2, 3 days",strong apoptosis effect
same,lactone to carboxylate conversion versus reference compounds,[3],faster and at a higher rate than other reference compounds
same,sensitivity to ABCG2,ABCG2,not affected by ABCG2
CC[C@@]1(O)C(=O)OCc2c1cc1n(c2=O)Cc2c-1nc1cc(F)c(C)c3c1c2[C@@H](N)CC3 [Exatecan],in vitro cytotoxicity versus SN-38,in vitro cytotoxicity,better efficacy against in vitro cytotoxicity compared to SN-38
same,type I topoisomerase inhibitory activity,DNA topoisomerase I,stronger type I topoisomerase inhibitory activity than SN-38
same,DDX5 degradation mechanism of action,DDX5 protein,exerts a mechanism of action (MoA) to degrade DDX5 protein
same,downregulating tumor proteins versus SN-38,[6],better efficacy in downregulating tumor proteins compared to the SN-38 drug
same,sensitivity to ABCG2,ABCG2,almost unaffected by ABCG2
same,effect on cancer cells resistant to SN-38 and other drugs,various cancer cells,effective against cancer cells that are resistant to SN-38
